Results: patent US10407712B2, “Methods, compositions and kits for high throughput kinase activity screening using mass spectrometry and stable isotopes” (President and Fellows of Harvard College, priority 2008, dated 2019)

Columns and labels:
HEK293 cells [1] = experiment: KAYAK of lysates from HEK293 cells pretreated with inhibitors before mitogen stimulation; assay type: cell-based, human
Procedure: For drug inhibition studies, cells were pretreated with U0126 (5 μM) or Wortmannin (100 nM) for 1 hr prior to hormone stimulation.
(§1) Peptides were synthesized, purified and quantified as described in Yu et al. 2009 Proc Natl Acad Sci USA 106: 11606-11611, hereby incorporated by reference herein in its entirety. Each substrate peptide (250 pmol) was mixed to a final concentration of 5 μM in the 50 μL reaction mixture. Alternatively, reactions were performed using 6 μg cell lysate aliquotes mixed to a final volume of 20 μl. Cell lysate or other kinase source was added to the substrate mixture in 25 mM Tris-Cl, pH 7.5, containing 5 mM ATP, 7.5 mM MgCl2, 0.2 mM EGTA, 7.5 mM β-glycerophosphate, 0.1 mM Na3VO4, and 0.1 mM DTT. The reaction was incubated at 25° C. for 60 min and then terminated by the addition of 100 μl of 1% trifluoroacetic acid (TFA) containing a known amount of an internal standard (typically 20 pmol). Alternatively, the reaction was incubated at 20° C. for 45 min before termination with TFA.
The KAYAK method was applied to measure the effect of pharmacological inhibitors or siRNA-mediated knockdown of kinase pathways after mitogen stimulation (see FIGS. 5A-5D and 8 for data obtained by immunoblotting analysis of cell lysates). […] EGF stimulated cell lysates strongly phosphorylated peptides B6, C6, C11 and G5 and these effects were blocked by pretreating cells with the MEK-specific inhibitor U0126.
In contrast, phosphorylation levels of these peptides were not changed as a result of insulin stimulation. […] PMA activates the MAPK pathway by activating the upstream kinase, PKC (Blenis et al. 1993 Proc Natl Acad Sci USA 90: 5889-5892). Because the observed increase in phosphorylation was reversed by prior treatment of cells with U0126, it was concluded that these peptides were not PKC substrates. Rather they were likely phosphorylated by kinases downstream of the MAPK pathway.
(§2) It was observed that basal phosphorylation of these peptides was not affected by knockdown and likely was the result of remaining RSK isoforms or other basophilic kinases (FIG. 5C).

HEK293 cells [2] = experiment: Single-reaction KAYAK of HEK293 cells treated with kinase inhibitors followed by insulin stimulation; assay type: cell-based, human; details: HEK293, inhibitor 30 min then 100 nM insulin 30 min
HeLa cell lysates = experiment: KAYAK in vitro kinase assay, lysates of asynchronous, G1/S- or G2/M-arrested HeLa cells; assay type: biochemical, human; details: G2/M phase compared to asynchronously growing HeLa cells
Procedure: For cell cycle examples, HeLa cells were synchronized by double thymidine block for G1/S-arrest and by 0.2 μg/ml nocodazole for G2/M-arrest as described (Dephoure et al. 2008 Proc Natl Acad Sci USA 105: 10762-10767). Synchronization was confirmed by flow cytometry.
(§3) For cell lysis, the media were removed, and cells were washed with ice-cold phosphate-buffered saline (PBS) and lysed with ice-cold lysis buffer (10 mM K2HPO4 pH 7.5, 1 mM EDTA, 10 mM MgCl2, 50 mM β-glycerophosphate, 5 mM EGTA, 0.5% Nonidet P-40, 0.1% Brij 35, 0.1% deoxycholic acid, 1mM sodium orthovanadate, 1mM phenylmethyl-sulfonyl fluoride, 5 μg/ml leupeptin and 5 μg/ml pepstatin A). Lysates were centrifuged at 10,000 rpm for 10 min to remove cell debris, and clear supernatant was used for immunoblotting and in vitro kinase assays. Protein concentration was determined by Bradford assay (Biorad, Hercules, Calif.).
as §1
(§4) Forty-five individual in vitro kinase reaction mixtures were combined and desalted by using Sep-Pak C18 cartridge (Waters, Milford, Mass.). Phosphopeptides were enriched by immobilized metal ion chromatography (IMAC) with 20 μl of beads (Phos-Select iron affinity gel; Sigma, St. Louis, Mo.) and subsequently desalted by using Empore C18 solid phase extraction disks (3M, St. Paul, Minn.) as described previously.
(§5) Quantitation of the target peptide-internal standard ratios was performed by first constructing the extracted ion chromatogram for the most abundant charge state for each peptide using a ±10 ppm window. Chromatograms were integrated using Qual/Quan browser (Xcalibur 2.0.5, Thermo Fisher, San Jose, Calif.). Since the phosphorylated peptides generated from the in vitro kinase reactions were chemically identical to the internal standards, they were assumed to have the same ionization efficiency. Therefore, the amount of each phosphorylated peptide was calculated by direct ratio to the internal standard level.
(§6) To test substrate suitability in a multiplexed assay, the phosphorylation activities were measured using […] of each substrate peptide, 6 μg lysate, and 5 mM ATP in a plate format. Reactions proceeded for 60 minutes followed by acidification and the addition of isotope-labeled reference peptides. After pooling 45 samples, phosphopeptide enrichment was followed by liquid-chromatography (LC) separation and on-line peptide detection by high-resolution mass spectrometry.
In order to examine target peptides with cell-cycle-dependent phosphorylation, kinase activities in asynchronously growing HeLa cells were profiled and the profiles were compared with those of cells synchronized in G1/S and G2/M phase using a double-thymidine block and nocodazole arrest, respectively (FIG. 3B).

HEK293 cell lysates [3] = experiment: KAYAK in vitro kinase assay, individual reactions, lysates of starved, insulin- or EGF-stimulated HEK293 cells; assay type: biochemical, human; details: for E: changed phosphorylation in EGF stimulated condition: EGF-stimulated compared to starved HEK293 cells; for increase in phosphorylation after EGF: EGF-stimulated vs serum-starved HEK293 lysate; for increase in phosphorylation after insulin: insulin-stimulated vs serum-starved HEK293 lysate
Procedure: (§7) For stimulation of HEK293 cells or HeLa lines, cells were treated with insulin (100 nM; 10-30 min) EGF (50 ng/ml; 10 min) or phorbol 12-myristate 13-acetate (PMA; 50 or 100 ng/ml; 10 -30 min) at 37° C. for the indicated times after overnight serum-starvation.
as §3, §1, §4, §5, §6
The ability of the peptides to report specific changes in kinase activation after pathway stimulation was examined herein. Lysates from HEK293 cells were collected after insulin or EGF treatment and were compared to their activities in the serum-starved state using the KAYAK approach. Western blot analysis of lysates from cells in which the PI3K and MAPK pathways were activated, as indicated by elevated phospho-Akt and phospho-ERK1/2 levels, respectively, is shown in FIG. 1D. […]

HEK293 cell lysates [4] = experiment: Single-reaction 90-substrate KAYAK assay, HEK293 lysates with or without insulin; assay type: biochemical, human; details: for phosphorylation in response to insulin stimulation: 5 μM each peptide, HEK293 lysate
Procedure: as §7
Alternatively, cells were washed with PBS once and lysed with ice-cold lysis buffer, 10 mM potassium phosphate, pH 7.0, containing 0.5% NP-40, 0.1% Brij 35, 0.1% deoxycholic acid, 1 mM ethylenediaminetetraacetic acid (EDTA), 5 mM ethylene glycol tetraacetic acid (EGTA), 10 mM MgCl2, 50 mM β-glycerophosphate, 1 mM Na3VO4, 2 mM dithiothreitol (DTT) and protease inhibitor cocktail (Complete, Roche Applied Science, Indianapolis, Ind.). Homogenates were centrifuged at 10,000 rpm for 15 min at 4° C., and the supernatant was used as lysate. Protein concentration was quantified by a modified Bradford assay (Pierce).
as §1
Internal standard heavy peptides (5 pmol each) were added as a mixture to the terminated reactions followed by desalting with a solid phase extraction cartridge (SepPak tC18 (50 mg), Waters, Milford, Mass.). Phosphopeptides were enriched as described (Villen et al. 2008 Nat Protoc 3: 1630-1638). […]
For KAYAK analyses, phosphopeptides were dissolved in 5% FA and injected onto a 125-μm-internal diameter fused silica column packed with Magic C18 AQ material (Michrom Bioresources, Auburn, Calif.). Peptides were separated using a two-solvent system: solvent A (0.125% FA and 3% ACN in H2O), solvent B (0.125% FA in ACN) over 32 min gradient, and eluting peptides were directly analyzed using an LTQ-Orbitrap mass spectrometer (Thermo Scientific, San Jose, Calif.) equipped with the electron transfer dissociation option. […]

recombinant RSK1 = target: T1, recombinant RSK1 (Homo sapiens, UniProt Q15418); experiment: In vitro peptide phosphorylation by purified RSK; assay type: biochemical
T1 construct: 90 kDa ribosomal S6 kinases 1 (RSK1, 1-735); purchased Cell Signaling Technology (Danvers, Mass.)
T1 sequence (Q15418 whole entry): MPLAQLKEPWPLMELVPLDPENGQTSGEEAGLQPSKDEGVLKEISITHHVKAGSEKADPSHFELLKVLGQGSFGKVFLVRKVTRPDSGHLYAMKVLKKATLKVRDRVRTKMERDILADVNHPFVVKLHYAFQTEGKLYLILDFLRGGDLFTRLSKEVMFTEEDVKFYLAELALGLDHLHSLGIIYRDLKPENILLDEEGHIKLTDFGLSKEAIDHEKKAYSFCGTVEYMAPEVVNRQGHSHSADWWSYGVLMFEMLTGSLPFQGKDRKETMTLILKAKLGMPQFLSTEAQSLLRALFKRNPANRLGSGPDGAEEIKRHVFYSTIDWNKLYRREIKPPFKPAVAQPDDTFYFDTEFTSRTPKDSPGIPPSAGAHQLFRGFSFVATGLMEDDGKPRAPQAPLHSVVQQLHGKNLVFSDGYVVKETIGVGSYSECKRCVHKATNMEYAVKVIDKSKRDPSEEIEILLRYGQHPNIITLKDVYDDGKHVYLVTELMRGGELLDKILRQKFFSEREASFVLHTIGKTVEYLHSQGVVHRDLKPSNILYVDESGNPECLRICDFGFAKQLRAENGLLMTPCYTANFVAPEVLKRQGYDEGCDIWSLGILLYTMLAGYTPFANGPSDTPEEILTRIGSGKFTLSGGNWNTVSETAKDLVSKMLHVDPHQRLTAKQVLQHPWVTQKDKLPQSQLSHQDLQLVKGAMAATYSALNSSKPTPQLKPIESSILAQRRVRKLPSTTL
Source text: (§8) Reaction mixture was supplemented with 0.1% BSA. Other conditions were the same as in FIG. 10A.
(§9) Purified human active kinases of Akt1 (full length), extracellular signal-regulated kinase 1 (ERK1, 1-379), mitogen-activated protein kinase kinase 1 (MEK1, 1-393), 90 kDa ribosomal S6 kinases 1 (RSK1, 1-735), cAMP-dependent protein kinase (PKA) catalytic subunit-α (PKA Cα, 1-351), protein kinase Cα (PKCα, full length), epidermal growth factor (EGF) receptor (EGFR, 672-1210), platelet-derived growth factor (PDGF) receptor α (PDGFRα, 550-1090), vascular endothelial growth factor (VEGF) receptor 1 (VEGFR1 784-1338), Src (full length), casein kinase 2 (CK2, full length), Aurora A (1-403), AMP-activated protein kinase α1β1γ1 (AMPK α1β1γ1, full length), glycogen synthase kinase-3α (GSK-3α, 1-483) and MAP/microtubule affinity-regulating kinase 1 (MARK 1, full length) were obtained from Cell Signaling Technology (Danvers, Mass.). Cdc2/cyclin B1 (full length) and insulin-like growth factor (IGF)-I receptor (IGFIR, 959-1367) were obtained from Upstate (Temecula, Calif.).
as §1, with “Each substrate peptide (250 pmol) was mixed to a final concentration of 5 μM in the 50 μL reaction mixture.” left out
as §2

activated, purified Akt = target: T2, activated, purified Akt (Homo sapiens, UniProt P31749); experiment: In vitro peptide phosphorylation by purified Akt; assay type: biochemical; details: control, 2 ng purified kinase
T2 construct: Purified human active kinases of Akt1 (full length); purchased Cell Signaling Technology (Danvers, Mass.)
T2 sequence (P31749 whole entry): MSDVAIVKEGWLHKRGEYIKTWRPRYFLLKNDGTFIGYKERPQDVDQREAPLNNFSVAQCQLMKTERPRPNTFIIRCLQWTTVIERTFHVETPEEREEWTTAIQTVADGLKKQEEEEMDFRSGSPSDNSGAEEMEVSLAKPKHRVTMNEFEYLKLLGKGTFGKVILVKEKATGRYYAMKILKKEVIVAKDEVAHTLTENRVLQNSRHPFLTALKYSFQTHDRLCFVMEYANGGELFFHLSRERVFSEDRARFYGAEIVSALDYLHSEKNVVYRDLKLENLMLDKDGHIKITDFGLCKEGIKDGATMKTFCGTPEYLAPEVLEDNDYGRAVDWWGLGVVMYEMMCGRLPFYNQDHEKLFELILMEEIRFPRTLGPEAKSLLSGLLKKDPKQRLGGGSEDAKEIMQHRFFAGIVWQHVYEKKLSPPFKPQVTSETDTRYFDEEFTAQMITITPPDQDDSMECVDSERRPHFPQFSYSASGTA
Source text: as §8, §9
Peptides were synthesized, purified and quantified as described in Yu et al. 2009 Proc Natl Acad Sci USA 106: 11606-11611, hereby incorporated by reference herein in its entirety. […] Alternatively, reactions were performed using 6 μg cell lysate aliquotes mixed to a final volume of 20 μl. […]

Row | Compound | effect on insulin-stimulated phosphorylation of peptide E11 (HEK293 cells [2]) | G2/M: changed phosphorylation (HeLa cell lysates) | E: changed phosphorylation in EGF stimulated condition (HEK293 cell lysates [3]) | increase in phosphorylation after EGF (HEK293 cell lysates [3]) | increase in phosphorylation after insulin (HEK293 cell lysates [3]) | phosphorylation in response to insulin stimulation (HEK293 cell lysates [4]) | further results
1 | N#CC(=C(/N)Sc1ccccc1N)/C(C#N)=C(\N)Sc1ccccc1N [U0126] | blocked |  |  |  |  |  | effect on EGF-stimulated phosphorylation of peptides B6, C6, C11 and G5 (HEK293 cells [1]; 5 μM, 1 hr pretreatment, HEK293): blocked; RSK-equivalent activity of lysate, peptide C6 as substrate (HEK293 cells [1]; cells pretreated with U0126 then stimulated with EGF, EGF alone approximately 0.6 ng per μg): 0.2 ng RSK/μg lysate; effect on PMA-induced increase in phosphorylation of RSK peptides (HEK293 cells [1]; prior treatment of cells, HEK293): reversed
2 | O=c1[nH]c2ccccc2n1C1CCN(Cc2ccc(-c3nc4cc5[nH]cnc5cc4nc3-c3ccccc3)cc2)CC1 [Akt inhibitor VIII] |  |  |  |  |  |  | effect on phosphorylation rate of the A3 peptide (HEK293 cells [2]): decreased
3 | RKRLISSVEDPFR (The sequence was designed and synthesized) [E11] |  | − (A change of more +2 fold and −2 fold is indicated by “+” and “−”, respectively.) | + (A change of more +2 fold and −2 fold is indicated by “+” and “−”, respectively.) | 2.3 fold | 1.7 fold | increased phosphorylation | increase of phosphorylation rate with insulin (HEK293 cell lysates [4]; HEK293): more than 2 fold
4 | RPRAATFPFR (The sequence was designed and synthesized) [A3] |  |  | + (A change of more +2 fold and −2 fold is indicated by “+” and “−”, respectively.) | 2.9 fold | 4.6 fold | increased phosphorylation | I: changed phosphorylation in insulin stimulated condition (HEK293 cell lysates [3]; insulin-stimulated compared to starved HEK293 cells): ++ (A change of more than +4 and −4 fold is indicated by “++” and “−−”, respectively.)
5 | TKRSGSVYEPPFR (The sequence was designed and synthesized) [C6] |  | − (A change of more +2 fold and −2 fold is indicated by “+” and “−”, respectively.) | + (A change of more +2 fold and −2 fold is indicated by “+” and “−”, respectively.) |  |  |  | phosphorylation by recombinant RSK1 in vitro (recombinant RSK1): robustly phosphorylate; phosphorylation by Akt (activated, purified Akt): not significantly phosphorylated
6 | C[S+]([O-])c1ccc(-c2nc(-c3ccncc3)c(-c3ccc(F)cc3)[nH]2)cc1 (stereo not drawn) [SB203580] | paradoxical upregulation |  |  |  |  |  | 
